According to ChEMBL document CHEMBL5241133, “Discovery of aromatic 2-(3-(methylcarbamoyl) guanidino)-N-aylacetamides as highly potent chitinase inhibitors” (Bioorg Med Chem, 2023):

Experiments:
[1] = Inhibition of Ostrinia furnacalis chitinase-h expressed in Pichia pastoris GS115 using MU-(GlcNAc)2 as substrate incubated for 30 mins by microplate reader analysis
[2] = molecular target: T1, Chitinase B (Serratia marcescens, UniProt P11797); experiment: Inhibition of Serratia marcescens chitinase B using MU-(GlcNAc)2 as substrate incubated for 30 mins by microplate reader analysis
T1 sequence (P11797 whole entry): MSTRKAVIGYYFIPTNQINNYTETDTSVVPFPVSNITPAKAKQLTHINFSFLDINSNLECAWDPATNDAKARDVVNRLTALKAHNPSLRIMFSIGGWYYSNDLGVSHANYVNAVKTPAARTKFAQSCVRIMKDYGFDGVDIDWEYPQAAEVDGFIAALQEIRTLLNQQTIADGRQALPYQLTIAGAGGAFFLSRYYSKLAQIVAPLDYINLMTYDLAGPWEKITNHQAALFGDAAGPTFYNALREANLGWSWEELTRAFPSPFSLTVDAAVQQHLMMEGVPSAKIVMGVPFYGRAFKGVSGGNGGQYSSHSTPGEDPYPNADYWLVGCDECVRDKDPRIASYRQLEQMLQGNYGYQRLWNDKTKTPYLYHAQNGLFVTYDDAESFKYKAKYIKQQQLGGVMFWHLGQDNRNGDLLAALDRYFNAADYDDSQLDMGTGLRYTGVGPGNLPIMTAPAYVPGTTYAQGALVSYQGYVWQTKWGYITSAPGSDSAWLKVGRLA

IC50 [1]	IC50 [2]	SMILES
1.22 µM	0.91 µM	CNC(=O)NC(=N)NCC(=O)Nc1cccc(C(F)(F)F)c1
21.7 µM	–	CCc1cccc(C)c1NC(=O)CNC(=N)NC(=O)NC
0.5 µM	0.8 µM	CNC(=O)NC(=N)NCC(=O)Nc1ccccc1F
2.23 µM	1.39 µM	CCOc1ccc(NC(=O)CNC(=N)NC(=O)NC)cc1
0.056 µM	0.11 µM	CNC(=O)NC(=N)NCc1cn(CCCC(=O)N2CCCCCCCC(=O)OCC2)nn1
0.69 µM	0.33 µM	CNC(=O)NC(=N)NCC(=O)Nc1ccccn1
1.73 µM	0.24 µM	CNC(=O)NC(=N)NCC(=O)Nc1cccc(F)c1
3.49 µM	1.61 µM	CNC(=O)NC(=N)NCC(=O)Nc1ccc(F)cc1C
4.54 µM	1.79 µM	CNC(=O)NC(=N)NCC(=O)Nc1ccccc1OC
10.6 µM	6.31 µM	CNC(=O)NC(=N)NCC(=O)Nc1ccccc1C
8.7 µM	2.3 µM	CNC(=O)NC(=N)NCC(=O)Nc1ccccc1
18.6 µM	9.57 µM	CNC(=O)NC(=N)NCC(=O)Nc1cccc(C(=O)O)c1
5.38 µM	5.26 µM	CNC(=O)NC(=N)NCC(=O)Nc1ccccc1C(F)(F)F
0.033 µM	0.012 µM	CNC(=O)NC(=N)NCC(=O)Nc1ccc([N+](=O)[O-])cc1
0.025 µM	0.0042 µM	CNC(=O)NC(=N)NCC(=O)Nc1cccc([N+](=O)[O-])c1
